Legend:
SS cells = experiment: Oxygen dissociation curve (P50) of sickle cells; type: cell-based, human
From the text: (§1) The uptake of oxygen by haemoglobin as a function of oxygen pressure gives a measure of the oxygen affinity of the haemoglobin and is often described by the value of P50, i.e. the pressure of oxygen at which haemoglobin is 50% saturated with O2. The P50 for HbS is typically higher than that for HbA, the decreased affinity for O2 compensating for the anaemia associated with the disease by facilitating release of O2 to the tissues. An agent which would decrease the P50 of HbS would cause the deoxy-form of the molecule to be less favoured and would thus inhibit polymerisation. It is possible to correlate the degree of oxygenation of sickle erythrocytes with the ability thereof to assume sickled morphology by counting deoxygenated cells using a light microscope. An anti-sickling agent which reduces the number of sickled cells produced at low oxygen concentrations would be effective in preventing or diminishing a crisis.

[1] = test system: sickle cell haemoglobin (HbS); experiment: HbS gelation assay (solubility Csol of deoxygenated HbS); type: biochemical, human
Procedure: A number of in vitro methods have been developed for testing the effects of compounds of the functioning of HbS molecules. One such method determines the ability of a compound to inhibit gel formation in HbS solutions. In this gelation assay, Hb solution in phosphate buffer, pH 7.0, at physiological concentrations are mixed at 0° C. with the test compound and deoxygenated by evacuation. […] The solutions are then transferred to centrifuge tubes and equilibrated at 37° C. for 30 minutes before centrifugation at 150,000 g for 1 hour. The supernatant is decanted from the gel and the Hb concentration (Csol) thereof determined spectrophotometrically. For sickle cell haemoglobin without addition of anti-sickling agent, the Csol is typically 17 gm/dl. This compares with a Csol of 23 gm/dl for haemoglobin extracted from individuals having sickle cell trait.

[2] = Solubility in physiological buffers; type: physicochemical
whole sickle cells = experiment: Microscopic whole cell sickling assay; type: cell-based, human
From the text: as §1
There are fewer sickle cells in the presence of the dipeptide over the entire range of oxygen concentration. […] In vivo, this increased reversibility would reduce the number of circulating irreversibly sickled cells (ISC).

HbS = experiment: Rate of polymerisation of HbS: lag time before onset of gelation after temperature jump; type: biochemical, human; conditions: different molar ratios of dipeptide:HbS, FIG. 4
Procedure: The rate of polymerisation of HbS molecules may be followed by spectrophotometrically monitoring the onset of gelation, after a temperature jump from 0° C. to 37° C., in a concentrated HbS solution. An effective anti-sickling agent should reduce the rate of polymerisation by at least ten-fold.

## L-lysine-L-phenylalanine
SS cells; SS cells + 25 mM peptide, 3 hours incubation at 37° C., 5:1 molar ratio extra-cellular dipeptide:intra-cellular HbS, 51 mm without peptide
  P50: 41 mm of mercury
SS cells; incubation with peptide
  oxygen affinity of cells: increase in oxygen affinity
[1]; FIG. 2
  effect on Csol of HbS: increase in Csol
[1]; in vitro
  inhibition of gelation of deoxygenated HbS solutions: inhibit the gelation
[1]; peptide:Hb tetramer ratio of 4.7:1, from linear plot of Csol versus log (peptide:Hb), HbS without agent typically 17 gm/dl
  Csol (solubility of homozygous sickle cell haemoglobin): 23 gm/dl
[1]; relative to L-phenylalanine
  increase of HbS solubility over L-phenylalanine: four-fold
[2]
  solubility in physiological buffers: readily soluble
Whole sickle cells
  inhibition of whole cell sickling: inhibits whole cell sickling
Whole sickle cells; compared with control
  proportion of sickled cells becoming unsickled as oxygen is made available: a greater proportion becomes unsickled
Whole sickle cells; complete deoxygenation, in vitro dose response, FIG. 9, read-out: extra-cellular concentration reducing the number of sickled cells by 50%
  IC50: ~5 mM
Whole sickle cells; pre-incubation with peptide, different partial pressures of oxygen
  percentage of sickled cells: substantially reduced
Whole sickle cells; zero oxygen tension, FIG. 8
  pre-incubation time sufficient to protect against sickling: 15 min
HbS
  lag time before gelation (rate of polymerisation): increase in the delay before gelation
